Each structure is given as a SMILES string. “And” between values parts separate entries of the source, which are not always exact repeats. Equal values may be shown once.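 Assay format: 96-well plates, 48-hour exposure. GI50 = concentration required for 50% inhibition of growth. The concentration for full growth arrest is given as TGI.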

Assay in all cases: NCI-60 cell line screen, 48 h
Test [1] concerns M14 melanoma.
In test [2] the test system is SN12C renal.
The test system of test [3] is RXF 393 renal.
The subject of test [4] is 786-0 renal.
Test [5] relates to OVCAR-8 ovarian.
The test system of test [6] is SK-MEL-2 melanoma.
Test [7] has as its system HS 578T breast.
Test [8] has as its system COLO 205 colon.
Test [9] has as its system UACC-257 melanoma.
Test [10] relates to DU-145 prostate.

Turning to `COc1ccc(-c2cc3cccc(OC)c3c(=O)o2)cc1OC`, the GI50 is 93.9 µM in test [1]; 19.7 µM in test [2]; 32 µM in [3]; 50.2 µM in [4]; more than 100 µM in test [5]; more than 100 µM in [6]. The GI50 in test [7] was 12.7 µM; in test [8], 35.8 µM; in test [9], 92.8 µM; in test [10] it was 0.795 µM. The TGI in [1], in test [2], in [3], in [4], in test [5] and in [6] was more than 100 µM each time. The TGI in [7], in [8], in [9] and in test [10] was more than 100 µM in each case.
As to `CS(=O)(=O)c1nccc(-c2c(-c3cccc(OCc4ccc(F)cc4)c3)nc3sccn23)n1`, the GI50 in test [1] is 25.9 µM; in test [2] it was more than 56.6 µM; in test [3], 21.7 µM; in test [4] it was 16.8 µM; in [5], 59.9 µM; in test [6] it was more than 100 µM. The GI50 in test [7] was 14.3 µM; in test [8], 45 µM; in [9], 5 µM; in [10], 1.92 µM. For the same compound, the TGI in test [1], in test [2], in test [3], in [4], in [5] and in test [6] was more than 100 µM each time. The TGI was more than 100 µM in test [7], more than 100 µM in test [8], 14.8 µM in [9] and 3.41 µM in test [10].
As for `COC1/C=C/O[C@@]2(C)Oc3c(C)c(O)c4c(O)c(cc(O)c4c3C2=O)NC(=O)/C(C)=C\C=C\[C@H](C)C(O)[C@@H](C)[C@@H](O)[C@@H](C)[C@H](OC(C)=O)[C@@H]1C` (stereo partly specified), the GI50 in [1] is 13.8 µM; in [2] it was 11.9 µM; in test [3] it was 14 µM; in [4], 4.29 µM; in [5] it was 14.9 µM; in test [7], 24.2 µM. The GI50 in [8] was 4.25 µM; in [9], 17.5 µM; in test [10], 12.3 µM. In addition, the TGI in test [1] is 27 µM and 35.7 µM; in [2], 24.6 µM and 33.9 µM; in test [3], 29.9 µM and 25.7 µM; in [4] it was 15.9 µM and 29.5 µM; in test [5], 29.8 µM and 57.4 µM; in test [6], 30 µM and 45.2 µM. Also, the TGI in [7] was 64.6 µM and 114 µM; in test [8], 15.5 µM and 10.6 µM; in test [9], 32.7 µM and 32.9 µM; in test [10] it was 26.8 µM and 54.5 µM.
For `O=C1c2ccn(CCCCN3CCOCC3)c2C(=O)c2c1c(O)c1ccccc1c2O`, the GI50 was 2.36 µM in [1]; 11.4 µM in test [2]; 2.2 µM in test [3]; 6.34 µM in test [4]; 5.52 µM in [5]; 29.8 µM in test [7]. The GI50 in [8] is 5.69 µM; in test [9], 8.43 µM. The TGI was 6.32 µM in test [1]; 24 µM in test [2]; 6.93 µM in test [3]; 25.2 µM in test [4]; 20 µM in [5]; more than 100 µM in test [7]. The TGI turned out to be 34 µM in test [8] and 27.4 µM in test [9].
Take `C[C@]12CC[C@H](O)CC1=CC[C@@H]1[C@@H]2CC[C@]2(C)C(=O)/C(=C/c3cccc(OCCCn4ccnc4)c3)C[C@@H]12`: the GI50 in test [1] is 18.5 µM; in test [2], 28.7 µM; in [4] it was 23.2 µM; in [5], 17.7 µM; in [6] it was 19.9 µM; in test [7], 21.5 µM. In addition, the GI50 was 20.3 µM in test [8] and 19.9 µM in [10]. For the same compound, the TGI stood at 33.2 µM in test [1]; 88.3 µM in test [2]; 47.2 µM in test [4]; 32.8 µM in test [5]; 51 µM in test [6]; 54.2 µM in test [7]. Besides, the figures for the TGI in test [8] and in test [10] were 45.8 µM and 38.7 µM, respectively.
Take `OCCN1CCN(CCCN2c3ccccc3Sc3ccc(C(F)(F)F)cc32)CC1`: the GI50 in test [1] was 0.899 µM and 2.34 µM; in [2], 4.49 µM and 11.4 µM and 7.83 µM; in test [3], 1.35 µM and 5.08 µM and 5.7 µM; in test [4], 3.01 µM and 9.35 µM and 3.81 µM; in test [5], 4.46 µM and 13.6 µM and 14 µM; in test [7], 1.86 µM and 13.5 µM and 8.23 µM. In addition, the GI50 in test [8] is 0.795 µM and 2.17 µM and 1.93 µM; in test [9], 0.863 µM and 2.01 µM and 1.96 µM; in test [10], 6.29 µM and 12.9 µM. The TGI in test [1] was 1.73 µM and 6.13 µM; in test [2] it was 11.4 µM and 26.7 µM and 21.8 µM; in [3], 6.39 µM and 18.9 µM and 19.6 µM; in test [4], 9.95 µM and 25.9 µM and 20.4 µM; in [5], 11.4 µM and 28.5 µM and 28.8 µM; in [7], 13.1 µM and 60.6 µM and 41.6 µM. The TGI in test [8] is 1.53 µM and 4.46 µM and 3.59 µM; in test [9] it was 1.74 µM and 4.97 µM and 4.19 µM; in [10], 12.7 µM and 25.7 µM.
Turning to `CC1=CC[C@@H]2[C@@H](CC[C@@]2(C)O)C(C)(C)[C@H]1CC[C@@H]1[C@@]2(C)CCC(=O)C(C)(C)O[C@@H]2CC[C@]1(C)O`, the TGI is 59.3 µM in test [1]; 42.3 µM in [2]; 59.6 µM in test [4]; 62.1 µM in test [5]; more than 100 µM in [6]; 77 µM in [7]. Further, the TGI in test [8] is 55.8 µM; in test [9], more than 100 µM; in test [10], more than 100 µM.
Turning to `COc1ccc(-c2cc3c4c(nc5ccccc5c4c2)CC(c2cc(OC)c(OC)c(OC)c2)O3)cc1` (stereo unspecified), the GI50 in [1] is 2.96 µM; in [2], 2.75 µM; in test [3] it was 1.92 µM; in test [4], 1.92 µM; in test [5], 2.71 µM; in [6], 3.44 µM. Further, the results for the GI50 in test [7], in test [9] and in test [10] were 1.24 µM, 3.93 µM and 2.96 µM, respectively. Further, the TGI is 28.7 µM in [1]; more than 100 µM in test [2]; 4.65 µM in test [3]; 3.74 µM in test [4]; more than 100 µM in test [5]; 14.9 µM in test [6]. Also, the TGI was 6.81 µM in [7], more than 100 µM in test [9] and more than 100 µM in [10].

For the origin of these results see PubChem BioAssay (NCI).
